Measured values reported in PubChem BioAssay (NCI).
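Each compound was tested at five concentrations against cells in 96-well plates for 48 hours. GI50: concentration for 50% inhibition of growth. The concentration for full growth arrest is given as TGI.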

Columns and labels:
Assay in all cases: DTP human tumour cell line panel, 48 h
OVCAR-3 ovarian = tested on: OVCAR-3 ovarian
UO-31 renal = tested on: UO-31 renal
EKVX NSCLC = tested on: EKVX NSCLC
HCC-2998 colon = tested on: HCC-2998 colon
SK-MEL-28 melanoma = tested on: SK-MEL-28 melanoma
BT-549 breast = tested on: BT-549 breast
SK-MEL-5 melanoma = tested on: SK-MEL-5 melanoma
HOP-62 NSCLC = tested on: HOP-62 NSCLC
OVCAR-4 ovarian = tested on: OVCAR-4 ovarian
SR leukemia = tested on: SR leukemia
U251 CNS = tested on: U251 CNS
UACC-257 melanoma = tested on: UACC-257 melanoma
T-47D breast = tested on: T-47D breast
CCRF-CEM leukemia = tested on: CCRF-CEM leukemia
PC-3 prostate = tested on: PC-3 prostate
NCI-H460 lung = tested on: NCI-H460 lung
NCI/ADR-RES ovarian = tested on: NCI/ADR-RES ovarian
MDA-MB-435 = tested on: MDA-MB-435
HCT-15 colon = tested on: HCT-15 colon
HS 578T breast = tested on: HS 578T breast
KM12 colon = tested on: KM12 colon
NCI-H522 lung = tested on: NCI-H522 lung
DU-145 prostate = tested on: DU-145 prostate
K-562 leukemia = tested on: K-562 leukemia
RXF 393 renal = tested on: RXF 393 renal
SF-539 CNS = tested on: SF-539 CNS
HOP-92 NSCLC = tested on: HOP-92 NSCLC
786-0 renal = tested on: 786-0 renal
HT29 colon = tested on: HT29 colon
M14 melanoma = tested on: M14 melanoma
COLO 205 colon = tested on: COLO 205 colon
MALME-3M melanoma = tested on: MALME-3M melanoma
MCF7 breast = tested on: MCF7 breast
ACHN renal = tested on: ACHN renal
TK-10 renal = tested on: TK-10 renal
LOX IMVI melanoma = tested on: LOX IMVI melanoma
NCI-H23 lung = tested on: NCI-H23 lung
SK-MEL-2 melanoma = tested on: SK-MEL-2 melanoma
A498 renal = tested on: A498 renal
SN12C renal = tested on: SN12C renal
HL-60(TB) leukemia = tested on: HL-60(TB) leukemia
MDA-MB-231 breast = tested on: MDA-MB-231 breast
SNB-19 CNS = tested on: SNB-19 CNS
OVCAR-5 ovarian = tested on: OVCAR-5 ovarian
SK-OV-3 ovarian = tested on: SK-OV-3 ovarian
OVCAR-8 ovarian = tested on: OVCAR-8 ovarian
SNB-75 CNS = tested on: SNB-75 CNS
SF-268 CNS = tested on: SF-268 CNS
MOLT-4 leukemia = tested on: MOLT-4 leukemia
RPMI-8226 leukemia = tested on: RPMI-8226 leukemia
IGROV1 ovarian = tested on: IGROV1 ovarian
SF-295 CNS = tested on: SF-295 CNS
HCT-116 colon = tested on: HCT-116 colon
NCI-H226 lung = tested on: NCI-H226 lung
A549 NSCLC = tested on: A549 NSCLC
UACC-62 melanoma = tested on: UACC-62 melanoma
SW-620 colon = tested on: SW-620 colon

CCNCCCn1c2c(c3ccc(F)cc3c1=O)C(=O)c1cc(OC)cnc1-2
GI50 (OVCAR-3 ovarian): 0.282 µM
TGI (OVCAR-3 ovarian): 2.14 µM
GI50 (UO-31 renal): 0.123 µM
TGI (UO-31 renal): 0.568 µM
GI50 (EKVX NSCLC): 0.328 µM
TGI (EKVX NSCLC): 2.78 µM
GI50 (HCC-2998 colon): 1.06 µM
TGI (HCC-2998 colon): 2.5 µM
GI50 (SK-MEL-28 melanoma): 1.23 µM
TGI (SK-MEL-28 melanoma): 3.45 µM
GI50 (BT-549 breast): 0.936 µM
TGI (BT-549 breast): 5.14 µM
GI50 (SK-MEL-5 melanoma): 0.254 µM
TGI (SK-MEL-5 melanoma): 1.06 µM
GI50 (HOP-62 NSCLC): 0.149 µM
TGI (HOP-62 NSCLC): 0.472 µM
GI50 (OVCAR-4 ovarian): 0.46 µM
TGI (OVCAR-4 ovarian): 11 µM
GI50 (SR leukemia): 0.127 µM
TGI (SR leukemia): 0.978 µM
GI50 (U251 CNS): 0.1 µM
TGI (U251 CNS): 0.506 µM
GI50 (UACC-257 melanoma): 0.403 µM
TGI (UACC-257 melanoma): 2.16 µM
GI50 (T-47D breast): 0.145 µM
TGI (T-47D breast): 0.761 µM
GI50 (CCRF-CEM leukemia): 0.164 µM
TGI (CCRF-CEM leukemia): 1.12 µM
GI50 (PC-3 prostate): 0.301 µM
TGI (PC-3 prostate): 10.3 µM
GI50 (NCI-H460 lung): 0.0457 µM
TGI (NCI-H460 lung): 0.222 µM
GI50 (NCI/ADR-RES ovarian): 0.374 µM
TGI (NCI/ADR-RES ovarian): 4.89 µM
GI50 (MDA-MB-435): 0.477 µM
TGI (MDA-MB-435): 2.13 µM
GI50 (HCT-15 colon): 0.228 µM
TGI (HCT-15 colon): 3.32 µM
GI50 (HS 578T breast): 1.62 µM
TGI (HS 578T breast): 13.5 µM
GI50 (KM12 colon): 0.259 µM
TGI (KM12 colon): 10 µM
GI50 (NCI-H522 lung): 0.0562 µM
TGI (NCI-H522 lung): 1.02 µM
GI50 (DU-145 prostate): 0.215 µM
TGI (DU-145 prostate): 1.37 µM
GI50 (K-562 leukemia): 0.206 µM
TGI (K-562 leukemia): 1.68 µM
GI50 (RXF 393 renal): 0.26 µM
TGI (RXF 393 renal): 0.922 µM
GI50 (SF-539 CNS): 0.32 µM
TGI (SF-539 CNS): 1.39 µM
GI50 (HOP-92 NSCLC): 0.36 µM
TGI (HOP-92 NSCLC): 4.39 µM
GI50 (786-0 renal): 0.195 µM
TGI (786-0 renal): 0.755 µM
GI50 (HT29 colon): 0.147 µM
TGI (HT29 colon): 0.86 µM
GI50 (M14 melanoma): 0.336 µM
TGI (M14 melanoma): 1.72 µM
GI50 (COLO 205 colon): 0.0688 µM
TGI (COLO 205 colon): 1.16 µM
GI50 (MALME-3M melanoma): 0.329 µM
TGI (MALME-3M melanoma): 1.44 µM
GI50 (MCF7 breast): 0.0427 µM
TGI (MCF7 breast): 2.75 µM
GI50 (ACHN renal): 0.127 µM
TGI (ACHN renal): 0.371 µM
GI50 (TK-10 renal): 0.296 µM
TGI (TK-10 renal): 1.67 µM
GI50 (LOX IMVI melanoma): 0.141 µM
TGI (LOX IMVI melanoma): 0.319 µM
GI50 (NCI-H23 lung): 0.302 µM
TGI (NCI-H23 lung): 1.54 µM
GI50 (SK-MEL-2 melanoma): 1.13 µM
TGI (SK-MEL-2 melanoma): 4.12 µM
GI50 (A498 renal): 0.248 µM
TGI (A498 renal): 1.35 µM
GI50 (SN12C renal): 0.151 µM
TGI (SN12C renal): 0.763 µM
GI50 (HL-60(TB) leukemia): 0.202 µM
TGI (HL-60(TB) leukemia): 0.644 µM
GI50 (MDA-MB-231 breast): 0.404 µM
TGI (MDA-MB-231 breast): 1.93 µM
GI50 (SNB-19 CNS): 0.16 µM
TGI (SNB-19 CNS): 1.26 µM
GI50 (OVCAR-5 ovarian): 0.331 µM
TGI (OVCAR-5 ovarian): 1.9 µM
GI50 (SK-OV-3 ovarian): 0.221 µM
TGI (SK-OV-3 ovarian): 0.752 µM
GI50 (OVCAR-8 ovarian): 0.183 µM
TGI (OVCAR-8 ovarian): 0.992 µM
GI50 (SNB-75 CNS): 0.364 µM
TGI (SNB-75 CNS): 5.03 µM
GI50 (SF-268 CNS): 0.386 µM
TGI (SF-268 CNS): 10.9 µM
GI50 (MOLT-4 leukemia): 0.0485 µM
TGI (MOLT-4 leukemia): 0.369 µM
GI50 (RPMI-8226 leukemia): 0.144 µM
TGI (RPMI-8226 leukemia): 0.692 µM
GI50 (IGROV1 ovarian): 0.33 µM
TGI (IGROV1 ovarian): 4.49 µM
GI50 (SF-295 CNS): 0.194 µM
TGI (SF-295 CNS): 0.721 µM
GI50 (HCT-116 colon): 0.136 µM
TGI (HCT-116 colon): 0.55 µM
GI50 (NCI-H226 lung): 0.144 µM
TGI (NCI-H226 lung): 0.327 µM
GI50 (A549 NSCLC): 0.0643 µM
TGI (A549 NSCLC): 0.256 µM
GI50 (UACC-62 melanoma): 0.341 µM
TGI (UACC-62 melanoma): 1.85 µM
GI50 (SW-620 colon): 0.17 µM
TGI (SW-620 colon): 5.55 µM
